From BindingDB's records for patent US12398118 (Beijing Tide Pharmaceutical, 2025)

Experiments:
[1] = target: Rho-associated protein kinase 2 (Homo sapiens, UniProt O75116); test: Biological Assay
Description: Before the assay, the following working solutions as needed were formulated with corresponding reagents according to the instruction of the kinase detection kit: 1×kinase buffer, 5×STK-S2 substrate working solution (1.5 μM) and 5×ATP working solution (1.5 μM), 5×ROCK2 kinase working solution, 4×Streptavidin-XL665 working solution, and 4×STK-Ab-Cryptate 2 detection solution. Then the assay was performed according to the following procedure.A solution of a compound at a concentration of 10000 nM was prepared with the 1×kinase buffer containing 2.5% DMSO. Gradient dilution of the solution of the compound was performed with the kinase buffer containing DMSO, so as to obtain solutions of a test compound at 9 different concentrations. In addition to wells of test compounds, a positive well (containing all the reagents except the compound) and a negative well (containing all the reagents except the test compound and kinase) were set. Except for the control wells (positive and negative wells), a solution of a test compound (4 μL) was added to each of the reaction wells, and a solution of 2.5% DMSO was added to the control wells. Then the substrate ([…], i.e., 2 μL 5×STK-S2 substrate working solution) was added to each of the reaction wells. The 5×ROCK2 kinase working solution (2 μL, containing 1.4 ng ROCK2 kinase) was added to each of the reaction wells except for the negative well, the volume of which was made up with the 1×kinase buffer (2 μL). The 5×ATP working solution (2 μL) was added to each of the reaction wells, and the mixtures were incubated at room temperature for 2 hours. After the kinase reaction was complete, the 4×Streptavidin-XL665 working solution was added to each of the reaction wells, the solutions were mixed, followed by immediate addition of the 4×STK-Ab-Cryptate 2 detection solution (5 μL), and the mixtures were incubated at room temperature for 1 hour.

[2] = target: Rho-associated protein kinase 1 (Homo sapiens, UniProt Q13464); test: Biological Assay
Sequence of Rho-associated protein kinase 1 (Q13464 whole entry): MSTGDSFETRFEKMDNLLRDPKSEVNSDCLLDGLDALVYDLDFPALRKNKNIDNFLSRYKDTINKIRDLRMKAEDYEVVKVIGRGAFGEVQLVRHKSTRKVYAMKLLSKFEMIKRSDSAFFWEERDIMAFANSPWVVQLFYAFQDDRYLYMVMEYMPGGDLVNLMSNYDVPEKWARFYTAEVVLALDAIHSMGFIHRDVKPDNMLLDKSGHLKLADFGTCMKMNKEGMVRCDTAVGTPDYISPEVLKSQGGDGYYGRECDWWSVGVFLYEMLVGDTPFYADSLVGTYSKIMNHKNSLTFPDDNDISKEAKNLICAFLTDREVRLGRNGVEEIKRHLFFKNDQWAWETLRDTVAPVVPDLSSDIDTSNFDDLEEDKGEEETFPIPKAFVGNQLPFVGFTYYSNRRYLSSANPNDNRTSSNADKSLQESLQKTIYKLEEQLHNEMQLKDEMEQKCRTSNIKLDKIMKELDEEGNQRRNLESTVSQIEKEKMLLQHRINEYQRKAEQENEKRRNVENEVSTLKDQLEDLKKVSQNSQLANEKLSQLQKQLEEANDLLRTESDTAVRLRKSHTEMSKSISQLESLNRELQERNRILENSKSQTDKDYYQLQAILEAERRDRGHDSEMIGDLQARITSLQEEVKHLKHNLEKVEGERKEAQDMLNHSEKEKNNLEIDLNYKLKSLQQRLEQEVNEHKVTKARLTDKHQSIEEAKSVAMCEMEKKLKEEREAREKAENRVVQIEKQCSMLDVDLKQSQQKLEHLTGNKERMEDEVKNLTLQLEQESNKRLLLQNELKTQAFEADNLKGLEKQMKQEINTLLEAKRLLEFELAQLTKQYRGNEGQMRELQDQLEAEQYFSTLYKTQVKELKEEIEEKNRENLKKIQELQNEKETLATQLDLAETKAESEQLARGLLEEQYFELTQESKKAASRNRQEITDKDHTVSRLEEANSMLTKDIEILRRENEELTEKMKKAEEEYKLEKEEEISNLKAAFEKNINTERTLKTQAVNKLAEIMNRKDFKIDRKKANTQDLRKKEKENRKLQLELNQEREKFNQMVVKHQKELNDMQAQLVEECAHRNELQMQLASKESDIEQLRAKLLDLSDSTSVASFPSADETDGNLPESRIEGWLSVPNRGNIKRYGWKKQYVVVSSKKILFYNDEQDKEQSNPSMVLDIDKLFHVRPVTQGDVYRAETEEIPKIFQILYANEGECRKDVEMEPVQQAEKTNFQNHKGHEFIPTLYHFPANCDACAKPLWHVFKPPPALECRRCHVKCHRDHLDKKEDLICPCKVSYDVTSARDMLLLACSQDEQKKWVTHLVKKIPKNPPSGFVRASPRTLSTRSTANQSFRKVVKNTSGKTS

Sequence of Rho-associated protein kinase 2 (O75116 whole entry): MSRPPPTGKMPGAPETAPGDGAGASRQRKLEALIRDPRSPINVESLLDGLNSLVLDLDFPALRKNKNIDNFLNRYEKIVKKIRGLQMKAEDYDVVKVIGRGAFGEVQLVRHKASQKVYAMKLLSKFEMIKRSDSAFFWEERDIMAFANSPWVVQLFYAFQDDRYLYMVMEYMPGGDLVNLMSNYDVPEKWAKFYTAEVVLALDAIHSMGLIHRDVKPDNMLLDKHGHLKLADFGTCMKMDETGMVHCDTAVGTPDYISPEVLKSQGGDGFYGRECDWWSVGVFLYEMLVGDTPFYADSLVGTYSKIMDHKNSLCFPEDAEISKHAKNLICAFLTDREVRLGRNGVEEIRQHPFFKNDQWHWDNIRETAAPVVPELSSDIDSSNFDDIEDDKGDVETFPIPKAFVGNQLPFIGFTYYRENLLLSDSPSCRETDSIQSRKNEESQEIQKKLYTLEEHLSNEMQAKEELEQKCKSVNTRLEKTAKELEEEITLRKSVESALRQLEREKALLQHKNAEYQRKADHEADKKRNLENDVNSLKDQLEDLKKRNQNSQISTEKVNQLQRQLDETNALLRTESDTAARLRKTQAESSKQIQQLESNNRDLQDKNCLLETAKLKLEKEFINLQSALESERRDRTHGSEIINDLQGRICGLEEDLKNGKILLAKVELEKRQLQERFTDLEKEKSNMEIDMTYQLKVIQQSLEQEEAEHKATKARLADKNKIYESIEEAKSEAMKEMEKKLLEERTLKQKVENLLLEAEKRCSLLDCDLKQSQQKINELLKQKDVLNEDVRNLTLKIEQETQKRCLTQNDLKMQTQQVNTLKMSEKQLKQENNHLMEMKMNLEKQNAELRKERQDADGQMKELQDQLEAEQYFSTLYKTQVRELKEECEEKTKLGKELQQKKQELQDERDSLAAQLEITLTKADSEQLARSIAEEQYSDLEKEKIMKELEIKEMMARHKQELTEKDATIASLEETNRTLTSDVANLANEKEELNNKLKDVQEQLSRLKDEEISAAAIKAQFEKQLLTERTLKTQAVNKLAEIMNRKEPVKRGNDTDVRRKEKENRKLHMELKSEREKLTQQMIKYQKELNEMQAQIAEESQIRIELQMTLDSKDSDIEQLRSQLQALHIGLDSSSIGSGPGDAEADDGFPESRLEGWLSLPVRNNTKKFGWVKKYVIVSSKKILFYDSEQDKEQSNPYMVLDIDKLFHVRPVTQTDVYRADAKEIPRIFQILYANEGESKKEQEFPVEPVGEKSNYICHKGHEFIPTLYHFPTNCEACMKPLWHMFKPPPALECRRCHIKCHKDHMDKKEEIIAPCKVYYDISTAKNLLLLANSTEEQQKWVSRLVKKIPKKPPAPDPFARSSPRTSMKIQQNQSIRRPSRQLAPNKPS

SMILES | IC50 [1] [nM] | IC50 [2] [nM]
CC(C)(C)OC(=O)N1CCc2sc(-c3ncc(F)c(Nc4ccc5c(=O)[nH]ccc5c4)n3)cc2C1 [US12398118, Compound C28] | 6 | > 10000
O=C(OC1CCC(F)(F)CC1)N1CCc2cc(-c3ncc(F)c(Nc4ccc5c(=O)[nH]ccc5c4)n3)ccc2C1 [US12398118, Compound C35] | 93 | > 10000
CC(OC(=O)N1CCc2sc(-c3ncc(F)c(Nc4ccc5c(c4)CCNC5=O)n3)cc2C1)C(F)(F)F (stereo not drawn) [US12398118, Compound C43] | 71 | 
CC(C)(C)OC(=O)N1CCc2sc(-c3ncc(F)c(Nc4ccc5c(N)nccc5c4)n3)cc2C1 [US12398118, Compound C45] | 491 | > 10000
CC(C)(C)CC(=O)N1CCc2sc(-c3ncc(F)c(Nc4ccc5c(=O)[nH]ccc5c4)n3)cc2C1 [US12398118, Compound C52] | 28 | > 10000
O=C(OCC(F)(F)F)N1Cc2ccc(-c3ncc(F)c(Nc4ccc5c(=O)[nH]ccc5c4)n3)cc2C1 [US12398118, Compound C72] | 24 | > 10000
O=C1NCCc2cc(Nc3nc(-c4cc5c(s4)CCN(C(=O)OCC(F)(F)F)C5)ncc3F)ccc21 [US12398118, Compound C75] | 37 | > 10000
